Laboratory results published in patent publication US12459921B2, “Isoindoline compound, preparation method, pharmaceutical composition and use thereof” (SHANGHAI INSTITUTE OF MATERIA MEDICA, CHINESE ACADEMY OF …, priority 2018, dated 2025).
Read-outs that look alike come from different tables or passages of the source.

Assays:
[1] = test system: MM.1S cells; experiment: Inhibitory effect on the proliferation of MM.1S, MTS cell viability test; assay type: cell-based; details: multiple myeloma MM.1S cells, 7 days incubation, read-out: Tumor cell inhibitory activity
How it was run: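 Viability measured by MTS (OD490 minus OD690 background, 3-4 h) after a 7-day exposure of 20,000 MM.1S cells/well to 5-fold serially diluted compound, 0.2% DMSO final. Inhibition calculated relative to DMSO wells; IC50 curve-fitted, averaged over three repeats.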

[2] = test system: MV-4-11 cells; experiment: Inhibitory effect on the proliferation of MV-4-11 cells, MTS cell viability test; assay type: cell-based; details: acute leukemia MV-4-11 cells, 7 days incubation, read-out: Tumor cell inhibitory activity
Description: Method of tumor cell proliferation inhibition test: the inventors tested all the example compounds on hematologic tumor cells, multiple myeloma MMTs cell line and acute leukemia cell MV-4-11 cell line of some examples. The activity test method and results are as follows.
2. The Inhibitory Effect of Compounds on the Proliferation of MV-4-11 Cells, MTS Cell Viability Test: 1). Experimental Method:
MV-4-11 cells were cultured and collected with IMDM and 10% fetal bovine serum. The cell concentration was diluted according to 7 days, and 180 ul of cell suspension was added to each well of a 96-well cell plate to 2000 cells. 20 ul of DMSO with a final concentration of 0.2% was added to the control wells. The compound was diluted 5-fold from the 10 mM stock solution, and 20 ul was also added to the compound cell wells (the final concentration of DMSO was 0.2%). The cells were placed in a 37° C., 5% CO2 incubator and incubated for 7 days. After the reaction solution was prepared according to the MTS kit (Promega, G5430), 20 μL was added to each well, incubated in a 37° C., 5% CO2 incubator for 3-4 h. The 490 nm absorbance value was read with a microtiter plate, and the 690 nm absorbance value was used as the background value. OD490-OD690 was used as the final initial data. The formula for calculating the inhibition rate of the compound was: inhibition rate=(ODDMSO-ODcompound)/(ODDMSO-Oblank)×100%. The compound's proliferation inhibition IC50 was fitted by Graph Pad Prism 5.0. The experiment was repeated three times, and the average and standard deviation was calculated according to three parallel experiments each time.

Compound | IC50 ([1]; Homo sapiens, MM1.S, 168 h) | IC50 ([2]; Homo sapiens, MV4-11, 168 h) | IC50 [1] | IC50 [2]
Cc1nc2cccc(N)c2c(=O)n1C1CCC(=O)NC1=O (stereo not shown) [CC-122, reference compound] | < 100 nM | > 20000 nM | – | –
N#CC1(c2cccc(Cl)c2)CCN(CCCCCc2cccc3c2CN(C2CCC(=O)NC2=O)C3=O)CC1 (stereo not shown) [Example 51, 4-(3-chlorophenyl)-1-(5-(2-(2,6-dioxopiperidine-3-)-1-oxoisoindoline-4-)pentyl) piperidine-4-carbonitrile] | < 100 nM | 570 nM | – | –
O=C1CCC(N2Cc3c(CCCCCN4CCC5(CCc6ccccc65)CC4)cccc3C2=O)C(=O)N1 (stereo not shown) [Example 143, 3-(4-(5-(2,3-dihydrospiro[indene-1,4′-piperidine]-1′-)pentyl)-1-oxoisoindoline-2-)piperidine-2,6-dione] | < 100 nM | 610 nM | – | –
Cc1ccc(NC(=O)CCCOc2cccc3c2CN(C2CCC(=O)NC2=O)C3=O)cc1Cl (stereo not shown) [Example 158, N-(3-chloro-4-methylphenyl)-4-((2-(2,6-dioxopiperidine-3-)-1-oxoisoindoline-4-)oxy)butanamide] | < 100 nM | 14 nM | – | –
CC(=O)N[C@@H](CCCc1cccc2c1CN(C1CCC(=O)NC1=O)C2=O)C(=O)Nc1ccccc1 (stereo partly drawn) [Example 164, (2S)-2-acetylamino-5-(2-(2,6-dioxopiperidine-3-)-1-oxoisoindoline-4-)-N-phenylpentanamide] | < 100 nM | 250 nM | – | –
CC(=O)N[C@@H](CCCc1cccc2c1CN(C1CCC(=O)NC1=O)C2=O)C(=O)NCc1ccccc1 (stereo partly drawn) [Example 166, (2S)-2-acetylamino-N-benzyl-5-(2-(2,6-dioxopiperidine-3-)-1-oxoisoindoline-4-)pentanamide] | 100 to 1000 nM | 200 nM | – | –
CC(C)C(=O)N[C@@H](CCCc1cccc2c1CN(C1CCC(=O)NC1=O)C2=O)C(=O)NCc1ccccc1 (stereo partly drawn) [Example 167, (2S)-N-benzyl-5-(2-(2,6-dioxopiperidine-3-)-1-oxoisoindoline-4-)-2-iso butyramidopentaneamide] | < 100 nM | 35 nM | – | –
N#CC1(c2cc(Cl)ccc2Cl)CCN(CCCCCc2cccc3c2CN(C2CCC(=O)NC2=O)C3=O)CC1 (stereo not shown) [Example 248, 4-(2,5-dichlorophenyl)-1-(5-(2-(2,6-dioxopiperidine-3-yl)-1-oxoisoindoline-4-yl)pentyl)piperidine-4-carbonitrile] | 1000 to 20000 nM | 660 nM | – | –
O=C1CCC(N2Cc3c(CCCCCN4CCC5(CC4)C(=O)Nc4cc(Cl)ccc45)cccc3C2=O)C(=O)N1 (stereo not shown) [Example 275, 3-(4-(5-(6-chloro-2-oxospiro[dihydroindole-3,4-piperidin]-1-yl)pentyl)-1-oxoisoindoline-2-yl)piperidine-2,6-dione] | 100 to 1000 nM | 630 nM | – | –
Nc1cccc2c1CN(C1CCC(=O)NC1=O)C2=O (stereo not shown) [Lenalidomide, lenalidomide, reference compound] | 100 to 1000 nM | > 20000 nM | – | –
Nc1cccc2c1C(=O)N(C1CCC(=O)NC1=O)C2=O (stereo not shown) [Pomalidomide, pomalidomide, reference compound] | < 100 nM | > 20000 nM | – | –

The remaining lines, values ahead:

IC50 ([1]; Homo sapiens, MM1.S, 168 h) | IC50 ([2]; Homo sapiens, MV4-11, 168 h) | IC50 [1] | IC50 [2] | Compound
< 100 nM | > 20000 nM | – | – | O=C1CCC(N2Cc3c(OCc4ccc(CN5CCOCC5)cc4)cccc3C2=O)C(=O)N1 (stereo not shown) [CC-220, reference compound]
– | – | < 100 nM | 110 nM | O=C1CCC(N2Cc3c(CCCCCN4CCC(c5noc6cc(F)ccc56)CC4)cccc3C2=O)C(=O)N1 (stereo not shown) [Example 22, 3-(4-(5-(4-(6-fluorobenzo[d]isoxazole-3-)piperidine-1-)pentyl)-1-oxoisoindoline-2-)piperidine-2,6-dione]
< 100 nM | 180 nM | – | – | O=C1CCC(N2Cc3c(CCCCCN4CCc5ccccc54)cccc3C2=O)C(=O)N1 (stereo not shown) [Example 107, 3-(4-(5-(indoline-1-)pentyl)-1-oxoisoindoline-2-)piperidine-2,6-dione]
100 to 1000 nM | 220 nM | – | – | O=C1CCC(N2Cc3c(CCCCCN4CCc5ccc(Br)cc54)cccc3C2=O)C(=O)N1 (stereo not shown) [Example 114, 3-(4-(5-(5-bromoindoline-1-)pentyl)-1-oxoisoindoline-2-)piperidine-2,6-dione]
< 100 nM | 29 nM | – | – | O=C1CCC(N2Cc3c(CCC[C@H](NC(=O)C4CCC4)C(=O)NCc4ccccc4)cccc3C2=O)C(=O)N1 (stereo partly drawn) [Example 173, N-((2S)-1-(benzylamine)-5-(2-(2,6-dioxopiperidine-3-)-1-oxoisoindoline-4-)-1-oxopentyl-2-)cyclobutylcarboxamide]
< 100 nM | 17 nM | – | – | CC(=O)N[C@@H](CCCc1cccc2c1CN(C1CCC(=O)NC1=O)C2=O)C(=O)NCc1cccc(Br)c1 (stereo partly drawn) [Example 182, (2S)-2-acetylamino-N-(3-bromobenzyl)-5-(2-(2,6-dioxopiperidine-3-)-1-oxoisoindoline-4-)pentanamide]
< 100 nM | 600 nM | – | – | O=C1CCC(N2Cc3c(CCCCN4CCN(c5cccc6ccsc56)CC4)cccc3C2=O)C(=O)N1 (stereo not shown) [Example 221, 3-(4-(4-(4-(benzothiophene-7-yl)piperazin-1-yl)butyl)-1-oxoisoindoline-2-yl)piperidine-2,6-dione]
– | – | 1000 to 20000 nM | 510 nM | O=C1CCC(N2Cc3c(CCCCCN4CCC(c5noc6cc(F)ccc56)CC4)cccc3C2=O)C(=O)N1 (stereo not shown) [Example 226, 3-(4-(5-(4-(6-fluorobenzisoxazole-3-yl)piperidin-1-yl)pentyl)-1-oxoisoindoline-2-yl)piperidine-2,6-]
100 to 1000 nM | 480 nM | – | – | O=C1CCC(N2Cc3c(CCCCCN4CCN(c5c(Cl)cccc5Cl)CC4)cccc3C2=O)C(=O)N1 (stereo not shown) [Example 235, 3-(4-(5-(4-(2,6-dichlorophenyl)piperazine-1-yl)pentyl)-1-oxoisoindoline-2-yl)piperidine-2,6-dione]
